According to publication PMC10161222, “Small Molecule Decoys of Aggregation for Elimination of Aβ-Peptide Toxicity” (ACS Chemical Neuroscience, 2023):

Molecular target: T1, Aβ40 (Homo sapiens, UniProt P05067)
T1 construct: gene APP; 40-residue peptide cut from APP; IC50 rows: purchased mixture of HiLyte Fluor 488- and HiLyte Fluor 647-labelled human peptide (AnaSpec); ThT and TEM rows: unlabelled human recombinant peptide; self-associating, small oligomers of at most 8 monomers
Experiment: FRET-FCS early aggregation, molecular brightness (counts per particle)
Format: biochemical
Settings: inhibition of oligomer formation; HiLyte 488/647-labelled Aβ40 (about 100 nM + 200 nM), 20 mM HEPES pH 7.4

T1 sequence (P05067 672-711 limits assumed): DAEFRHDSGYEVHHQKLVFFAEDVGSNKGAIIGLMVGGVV

IC50: 130 nM
Compound: COc1cc(-c2ccc(N=Nc3cc(S(=O)(=O)O)c4ccccc4c3O)c(OC)c2)ccc1N=Nc1cc(S(=O)(=O)O)c2ccccc2c1O [#2, NSC 9615]
